The source of these data is patent publication US20230255970A1, “COMPOSITIONS AND METHODS FOR TREATING PROLIFERATIVE DISEASES” (The Broad Institute, Inc., priority 2020, published 2023).

Experiment [1] relates to Yap1. As to the kind of experiment: Yap1 protein levels in KP230 cells (western blot, immunofluorescence). Type of experiment: cell-based, mouse. The settings on record: 72 hours. The source says:
(§1) YAP1 cell culture and treatments: Eisinger lab: Murine KP230 cells, a Yap1-dependent cancer cell line, were derived from a tumor from the KP mouse model (Kras^G12/D; Trp53^f/fl), as described in Eisinger-Mathason, T. S. K. et al., Proc. Natl. Acad. Sci. U.S.A 112 (2015): E3402-11, which is hereby incorporated by reference in its entirety. STS-109 UPS cells were derived from a human UPS tumor and validated by Rebecca Gladdy, MD (Sinai Health System, Toronto, Ontario, Canada). TC32 cells were a gift from Patrick Grohar, MD, PhD (Children's Hospital of Philadelphia). HT-1080, HCT-116, and HEK293T cells were purchased from ATCC. KP230, HT-1080, and HEK-293T cells were grown in DMEM with 10% FBS, 1% L-glutamine, and 1% penicillin/streptomycin (P/S). STS-109 cells were cultured in DMEM with 20% FBS, 1% L-glutamine, and 1% P/S. TC32 cells were grown in RPMI with 10% FBS, 1% L-glutamine, and 1% P/S. HCT-116 cells were cultured in McCoy's 5A medium with 10% FBS and 1% P/S. All cells were confirmed to be negative for mycoplasma contamination and were maintained in an incubator at 37C with 5% CO2. […]
YAP1-related Western blotting: The cells were lysed in RIPA buffer (Pierce) supplemented with Halt Protease inhibitor cocktail and Halt Phosphatase inhibitor cocktail. […] The protein concentration of each sample was quantified using the Pierce BCA protein assay (Thermo Fisher). […]
Background: A western blot detects proteins with antibodies after separation by electrophoresis.

Experiment [2] concerns TRAF2 overexpression in U2OS cells. As to the kind of experiment: Cell Painting morphological profile matching to TRAF2 overexpression. In kind it is cell-based, human. The settings on record: Pearson correlation of Cell Painting signatures, U2OS cells. In a few lines: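 Compound-treated U2OS cells were stained with six fluorescent labels and imaged, and morphological profiles were standardized plate-wise against controls. Replicate profiles were averaged into signatures. Compound and gene-overexpression signatures were matched by Pearson correlation.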

The subject of experiment [3] is Yap1. As to the kind of experiment: Nuclear Yap1 immunofluorescence in KP230 cells. In kind it is cell-based, mouse.
Source text: as §1, with “(P/S).” for “(P/S). STS-109 cells were cultured in DMEM with 20% FBS, 1% L-glutamine, and 1% P/S. TC32 cells were grown in RPMI with 10% FBS, 1% L-glutamine, and 1% P/S. HCT-116 cells were cultured in McCoy's 5A medium with 10% FBS and 1% P/S. All cells were confirmed to be negative for mycoplasma contamination and were maintained in an incubator at 37C with 5% CO2.”
YAP1-related immunofluorescence and image analysis: Cells were grown on poly-L-lysine-coated chamber slides were fixed in 4% PFA (15 minutes at room temperature), permeabilized with 0.5% Triton-X100/PBS (15 minutes at room temperature), and blocked with 5% goat serum (Vector Laboratories S-1000; 1 hour at room temperature). […] The ratio of nuclear to total Yap1 expression was determined after subtracting out background GFP signal from no-primary antibody controls.

The subject of another experiment is TAZ. The settings on record: HT29 cells, six hours; cited from earlier work.

Molecules are shown by their SMILES.

In the case of `c1ccc(CNc2ncnc3ccccc23)cc1` [BRD-K43796186, N-benzylquinazolin-4-amine], the Yap1 protein levels entry in the experiment with Yap1 [1] is on record as “reduced”. The “Corr. to TRAF2” value in experiment [2] is on record as −0.3778. Further, in the experiment with Yap1 [3], the Yap1 nuclear localization entry is “significantly attenuated”. The “TAZ mRNA z-score” value in the experiment with TAZ is given as 2.04.
